Results: patent publication US20130040903A1, “PHARMACEUTICAL COMPOSITIONS FOR TREATING DEPRESSION AND ANXIETY” (priority 2007, published 2013)

Key:
Kunming (KM) mice = test: Mouse light-dark transition experiment (Experiments 3, 10); assay type: in vivo; settings: 2.5 mg/kg into the stomach once daily 7 days, within 10 minutes
Experimental: 3.5.1 Group division and administration of drug: The mice are grouped randomly as 5 groups, and 10 mice are in each group. 1. High dose of Embodiment 1 (80 mg/kg); 2. middle dose of Embodiment 1 (40 mg/kg); 3. low dose of Embodiment 1 (20 mg/kg); 4. Diazepam (2.5 mg/kg); and 5. physiological saline (normal saline, NS). The drugs are fed into the mouse stomach once every day, and the mouse is administered for continuous 7 days. In the period of administration, the mouse eats and drinks freely, and the experiment is proceeded after 1 hour of the last administration of drug on the eighth day.
Mouse light-dark transition test: The dark chamber occupies one third of the light-dark transition chamber (44 cm×21 cm×21 cm), and the top is capped. The light chamber occupies two third thereof and is illuminated brightly. […] The times that the mouse enters into the dark chamber and returns to the light chamber within 10 minutes are determined, and the times thereof are being the index for evaluating the anti-anxiety function of the drugs. […]
Mouse light-dark transition test: The dark chamber occupies one third of the light-dark transition chamber (44 cm×21 cm×21 cm), and the top is capped. […] The times that the mouse enters into the dark chamber and returns to the light chamber within 10 minutes are determined, and the times thereof are being the index for evaluating the anti-anxiety function of the drugs.

ICR mice = test: Resetpine-induced mouse body temperature decrease experiment (Experiments 2, 5, 7); assay type: in vivo; settings: Experiment 5; 3 mg/kg P.O. 7 days; 4 hours after Resetpine 2 mg/kg i.p.
Experimental: 2.5.1 Group division and administration of drug: The mice are grouped randomly, and 10 mice are in each group. 1. High dose of Embodiment 1 (80 mg/kg, P.O., administered for 7 days); 2. middle dose of Embodiment 1 (40 mg/kg, P.O., administered for 7 days); 3. low dose of Embodiment 1 (20 mg/kg, P.O., administered for 7 days); 4.
2.5.2 Experimental method: After 1 hour of the last administration of drug on the eighth day, the mouse's anal temperature is determined. Then 2 mg of Resetpine per kilogram of the body weight is given by intraperitoneal injection. After 4 hours of injecting Resetpine, mouse's anal temperature is determined once again. The depth and time of injecting the thermometer into mouse's anus are identical in each temperature measurement.
5.5.1 Group division and administration of drug: The mice are grouped randomly, and 10 mice are in each group. 1. […]
5.5.2 Experimental method: After 1 hour of the last administration of drug on the eighth day, the mouse's anal temperature is determined. […] After 4 hours of injecting Resetpine, mouse's anal temperature is determined once again. […]
2.5.2 Experimental method: After 1 hour of the last administration of drug on the eighth day, the mouse's anal temperature is determined. […] After 4 hours of injecting Resetpine, mouse's anal temperature is determined once again. […]

Row | Compound | Times of passing from dark chamber to light chamber (Kunming (KM) mice; Experiment 3) | Times of passing from dark chamber to light chamber (Kunming (KM) mice; Experiment 10) | Time of non-movement (ICR mice) [s]
1 | CN1C(=O)CN=C(c2ccccc2)c2cc(Cl)ccc21 [Diazepam] | 11.3 ± 4.54 | 11.7 ± 4.47 | 
2 | Fc1ccc([C@@H]2CCNC[C@H]2COc2ccc3c(c2)OCO3)cc1 [Paroxetine] |  |  | 2.38 ± 0.69
